What all share (experiment): KinomeScan competition binding assay
In test [1] the target is T1, PIK3CA (I800L) (Homo sapiens, UniProt P42336, I800L).
T1 construct: purchased KinomeScan, a division of Ambit Biosciences
The note with it: 10 μM compound; 10 µM. In a few lines: (§1)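 qPCR read-out of DNA tag; DNA-tagged kinase + immobilized ATP-site ligand + test compound. Competition binding expressed as % of control (POC) or Kd.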

For test [2], the target named is T2, MAPKAPK5 (Homo sapiens, UniProt Q8IW41).
T2 construct: purchased KinomeScan, a division of Ambit Biosciences
T2 sequence (Q8IW41 1-473): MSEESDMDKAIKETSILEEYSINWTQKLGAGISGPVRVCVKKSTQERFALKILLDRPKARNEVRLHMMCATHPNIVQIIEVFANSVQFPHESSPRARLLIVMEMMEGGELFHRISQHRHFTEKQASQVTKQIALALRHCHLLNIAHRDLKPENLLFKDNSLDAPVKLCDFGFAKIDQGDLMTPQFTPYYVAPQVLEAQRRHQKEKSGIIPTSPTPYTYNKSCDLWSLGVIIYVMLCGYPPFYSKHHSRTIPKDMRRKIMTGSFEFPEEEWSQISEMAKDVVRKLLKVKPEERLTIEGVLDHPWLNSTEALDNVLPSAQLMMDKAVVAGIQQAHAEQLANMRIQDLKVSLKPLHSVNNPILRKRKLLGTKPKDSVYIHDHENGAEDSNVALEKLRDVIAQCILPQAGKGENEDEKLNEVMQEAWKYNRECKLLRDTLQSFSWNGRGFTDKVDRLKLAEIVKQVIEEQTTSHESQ
The note with it: 10 μM compound; 10 µM. The essentials: as §1

The target of test [3] is T3, BTK (Homo sapiens, UniProt Q06187).
T3 construct: purchased KinomeScan, a division of Ambit Biosciences
The note with it: 10 μM compound. In a few lines:
as §1

For test [4], the target named is T4, CSNK1G3 (Homo sapiens, UniProt Q9Y6M4).
T4 construct: purchased KinomeScan, a division of Ambit Biosciences
The note with it: 10 μM compound; 10 µM. In a few lines:
as §1

Test [5] concerns the target T5, HIPK3 (Homo sapiens, UniProt Q9H422).
T5 construct: purchased KinomeScan, a division of Ambit Biosciences
The settings on record: 10 μM compound; 10 µM. The essentials:
as §1

Test [6] concerns the target T6, IRAK1 (Homo sapiens, UniProt P51617).
T6 construct: purchased KinomeScan, a division of Ambit Biosciences
The settings on record: 10 μM compound; 10 µM. The essentials:
as §1

Test [7] has as its target T7, HIPK2 (Homo sapiens, UniProt Q9H2X6).
T7 construct: purchased KinomeScan, a division of Ambit Biosciences
The note with it: 10 μM compound; 10 µM. The essentials: as §1

Test [8] addresses T8, CSNK1G2 (Homo sapiens, UniProt P78368).
T8 construct: purchased KinomeScan, a division of Ambit Biosciences
The settings on record: 10 μM compound; 10 µM. The essentials: as §1

The target in test [9] is T9, SLK (Homo sapiens, UniProt Q9H2G2).
T9 construct: purchased KinomeScan, a division of Ambit Biosciences
The settings on record: 10 μM compound; 10 µM. The essentials:
as §1

In test [10] the target is T10, PIP5K2C (Homo sapiens, UniProt Q8TBX8).
T10 construct: purchased KinomeScan, a division of Ambit Biosciences
T10 sequence (Q8TBX8 1-421): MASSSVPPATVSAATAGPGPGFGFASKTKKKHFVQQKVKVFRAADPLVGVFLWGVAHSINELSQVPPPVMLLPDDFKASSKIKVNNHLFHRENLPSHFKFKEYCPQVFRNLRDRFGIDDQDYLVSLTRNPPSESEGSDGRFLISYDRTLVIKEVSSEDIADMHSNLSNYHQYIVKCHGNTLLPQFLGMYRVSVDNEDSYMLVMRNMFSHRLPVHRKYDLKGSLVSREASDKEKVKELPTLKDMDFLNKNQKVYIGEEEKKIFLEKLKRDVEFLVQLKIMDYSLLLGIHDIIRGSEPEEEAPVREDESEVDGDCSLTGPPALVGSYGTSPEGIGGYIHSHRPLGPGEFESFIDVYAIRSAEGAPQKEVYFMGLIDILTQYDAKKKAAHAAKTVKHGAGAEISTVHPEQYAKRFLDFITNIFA
The note with it: 10 μM compound; 10 µM. The essentials:
as §1

Test [11] addresses T11, CDK8 (Homo sapiens, UniProt P49336).
T11 construct: purchased KinomeScan, a division of Ambit Biosciences
In a few lines: as §1

The target of test [12] is T12, CIT (Homo sapiens, UniProt O14578).
T12 construct: purchased KinomeScan, a division of Ambit Biosciences
The note with it: 10 μM compound; 10 µM. The essentials: as §1

The target in test [13] is T13, EGFR (G719C) (Homo sapiens, UniProt P00533, G719C).
T13 construct: purchased KinomeScan, a division of Ambit Biosciences
The note with it: 10 μM compound; 10 µM. In a few lines:
as §1

Test [14] concerns the target T14, CLK1 (Homo sapiens, UniProt P49759).
T14 construct: purchased KinomeScan, a division of Ambit Biosciences
The settings on record: 10 μM compound; 10 µM. The essentials: as §1

Test [15] deals with T15, MEK5 (Homo sapiens, UniProt Q13163).
T15 construct: purchased KinomeScan, a division of Ambit Biosciences
T15 sequence (Q13163 1-448): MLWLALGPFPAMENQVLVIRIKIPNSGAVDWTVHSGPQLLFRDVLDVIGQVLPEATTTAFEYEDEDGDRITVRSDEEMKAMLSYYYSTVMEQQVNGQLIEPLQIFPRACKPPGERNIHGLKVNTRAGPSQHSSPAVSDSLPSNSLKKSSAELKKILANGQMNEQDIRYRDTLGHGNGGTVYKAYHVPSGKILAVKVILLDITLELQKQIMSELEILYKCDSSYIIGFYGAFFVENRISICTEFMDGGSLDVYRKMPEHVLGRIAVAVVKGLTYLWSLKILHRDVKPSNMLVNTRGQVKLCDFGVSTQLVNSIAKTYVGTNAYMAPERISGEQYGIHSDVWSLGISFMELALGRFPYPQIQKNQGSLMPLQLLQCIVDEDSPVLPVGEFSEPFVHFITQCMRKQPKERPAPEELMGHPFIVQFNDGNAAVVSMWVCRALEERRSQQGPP
The note with it: 10 μM compound; 10 µM. The essentials:
as §1

The target in test [16] is T16, CLK4 (Homo sapiens, UniProt Q9HAZ1).
T16 construct: purchased KinomeScan, a division of Ambit Biosciences
The note with it: 10 μM compound; 10 µM. In a few lines: as §1

pKd: −log10 of the molar value.

T11 sequence (P49336 whole entry): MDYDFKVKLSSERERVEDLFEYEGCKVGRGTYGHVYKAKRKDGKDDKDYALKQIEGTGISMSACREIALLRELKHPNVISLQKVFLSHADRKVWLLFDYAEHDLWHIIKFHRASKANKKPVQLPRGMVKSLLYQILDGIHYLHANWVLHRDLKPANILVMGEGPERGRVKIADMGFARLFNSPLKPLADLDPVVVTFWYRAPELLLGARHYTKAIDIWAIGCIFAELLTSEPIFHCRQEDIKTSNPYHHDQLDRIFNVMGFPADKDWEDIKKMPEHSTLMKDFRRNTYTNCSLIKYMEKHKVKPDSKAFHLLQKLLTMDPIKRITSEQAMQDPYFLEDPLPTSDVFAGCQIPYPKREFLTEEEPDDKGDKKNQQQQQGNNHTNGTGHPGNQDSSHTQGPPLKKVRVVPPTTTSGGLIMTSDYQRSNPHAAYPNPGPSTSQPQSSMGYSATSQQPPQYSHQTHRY
T1 sequence (P42336 whole entry I800L): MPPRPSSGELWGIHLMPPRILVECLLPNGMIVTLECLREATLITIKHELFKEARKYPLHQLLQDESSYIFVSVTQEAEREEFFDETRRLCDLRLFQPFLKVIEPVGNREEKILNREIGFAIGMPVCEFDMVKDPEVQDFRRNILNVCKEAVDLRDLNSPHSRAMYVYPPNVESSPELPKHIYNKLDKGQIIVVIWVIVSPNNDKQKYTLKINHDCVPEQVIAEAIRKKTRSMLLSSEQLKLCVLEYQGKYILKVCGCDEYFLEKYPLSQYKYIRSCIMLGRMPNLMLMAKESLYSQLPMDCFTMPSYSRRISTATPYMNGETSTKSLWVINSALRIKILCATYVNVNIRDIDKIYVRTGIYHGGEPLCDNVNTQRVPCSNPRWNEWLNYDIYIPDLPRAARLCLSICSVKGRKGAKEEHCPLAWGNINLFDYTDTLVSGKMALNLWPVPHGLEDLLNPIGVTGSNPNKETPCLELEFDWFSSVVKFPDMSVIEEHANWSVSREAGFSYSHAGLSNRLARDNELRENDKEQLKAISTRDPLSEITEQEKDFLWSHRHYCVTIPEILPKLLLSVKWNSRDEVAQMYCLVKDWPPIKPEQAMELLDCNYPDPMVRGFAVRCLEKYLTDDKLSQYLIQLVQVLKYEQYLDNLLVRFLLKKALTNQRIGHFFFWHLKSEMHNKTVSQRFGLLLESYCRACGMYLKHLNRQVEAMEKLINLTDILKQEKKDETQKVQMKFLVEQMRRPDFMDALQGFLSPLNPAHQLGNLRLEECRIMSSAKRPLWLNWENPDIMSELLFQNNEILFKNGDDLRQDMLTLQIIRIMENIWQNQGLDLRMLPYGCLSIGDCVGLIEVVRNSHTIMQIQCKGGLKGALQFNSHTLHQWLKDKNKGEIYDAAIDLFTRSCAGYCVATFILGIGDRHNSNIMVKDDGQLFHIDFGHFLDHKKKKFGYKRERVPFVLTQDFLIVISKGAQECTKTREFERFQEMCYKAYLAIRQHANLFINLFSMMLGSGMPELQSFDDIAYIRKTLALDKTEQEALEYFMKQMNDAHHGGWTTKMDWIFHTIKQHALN
T3 sequence (Q06187 whole entry): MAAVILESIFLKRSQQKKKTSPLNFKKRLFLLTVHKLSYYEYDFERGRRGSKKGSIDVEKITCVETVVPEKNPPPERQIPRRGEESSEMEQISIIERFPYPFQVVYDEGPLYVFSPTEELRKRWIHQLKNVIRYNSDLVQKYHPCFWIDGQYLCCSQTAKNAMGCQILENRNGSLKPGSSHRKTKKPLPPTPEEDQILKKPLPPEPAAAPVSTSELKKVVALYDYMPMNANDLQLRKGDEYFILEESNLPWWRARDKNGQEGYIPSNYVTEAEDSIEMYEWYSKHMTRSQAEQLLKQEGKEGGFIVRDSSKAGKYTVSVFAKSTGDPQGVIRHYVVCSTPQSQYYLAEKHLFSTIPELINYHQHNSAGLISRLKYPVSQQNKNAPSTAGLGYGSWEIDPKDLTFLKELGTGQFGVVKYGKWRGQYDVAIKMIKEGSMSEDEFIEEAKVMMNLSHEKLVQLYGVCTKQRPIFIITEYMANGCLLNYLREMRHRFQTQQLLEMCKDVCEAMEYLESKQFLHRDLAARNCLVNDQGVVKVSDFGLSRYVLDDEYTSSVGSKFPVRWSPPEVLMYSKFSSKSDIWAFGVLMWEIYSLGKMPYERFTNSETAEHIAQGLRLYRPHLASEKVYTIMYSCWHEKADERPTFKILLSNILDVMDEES
T12 sequence (O14578 whole entry): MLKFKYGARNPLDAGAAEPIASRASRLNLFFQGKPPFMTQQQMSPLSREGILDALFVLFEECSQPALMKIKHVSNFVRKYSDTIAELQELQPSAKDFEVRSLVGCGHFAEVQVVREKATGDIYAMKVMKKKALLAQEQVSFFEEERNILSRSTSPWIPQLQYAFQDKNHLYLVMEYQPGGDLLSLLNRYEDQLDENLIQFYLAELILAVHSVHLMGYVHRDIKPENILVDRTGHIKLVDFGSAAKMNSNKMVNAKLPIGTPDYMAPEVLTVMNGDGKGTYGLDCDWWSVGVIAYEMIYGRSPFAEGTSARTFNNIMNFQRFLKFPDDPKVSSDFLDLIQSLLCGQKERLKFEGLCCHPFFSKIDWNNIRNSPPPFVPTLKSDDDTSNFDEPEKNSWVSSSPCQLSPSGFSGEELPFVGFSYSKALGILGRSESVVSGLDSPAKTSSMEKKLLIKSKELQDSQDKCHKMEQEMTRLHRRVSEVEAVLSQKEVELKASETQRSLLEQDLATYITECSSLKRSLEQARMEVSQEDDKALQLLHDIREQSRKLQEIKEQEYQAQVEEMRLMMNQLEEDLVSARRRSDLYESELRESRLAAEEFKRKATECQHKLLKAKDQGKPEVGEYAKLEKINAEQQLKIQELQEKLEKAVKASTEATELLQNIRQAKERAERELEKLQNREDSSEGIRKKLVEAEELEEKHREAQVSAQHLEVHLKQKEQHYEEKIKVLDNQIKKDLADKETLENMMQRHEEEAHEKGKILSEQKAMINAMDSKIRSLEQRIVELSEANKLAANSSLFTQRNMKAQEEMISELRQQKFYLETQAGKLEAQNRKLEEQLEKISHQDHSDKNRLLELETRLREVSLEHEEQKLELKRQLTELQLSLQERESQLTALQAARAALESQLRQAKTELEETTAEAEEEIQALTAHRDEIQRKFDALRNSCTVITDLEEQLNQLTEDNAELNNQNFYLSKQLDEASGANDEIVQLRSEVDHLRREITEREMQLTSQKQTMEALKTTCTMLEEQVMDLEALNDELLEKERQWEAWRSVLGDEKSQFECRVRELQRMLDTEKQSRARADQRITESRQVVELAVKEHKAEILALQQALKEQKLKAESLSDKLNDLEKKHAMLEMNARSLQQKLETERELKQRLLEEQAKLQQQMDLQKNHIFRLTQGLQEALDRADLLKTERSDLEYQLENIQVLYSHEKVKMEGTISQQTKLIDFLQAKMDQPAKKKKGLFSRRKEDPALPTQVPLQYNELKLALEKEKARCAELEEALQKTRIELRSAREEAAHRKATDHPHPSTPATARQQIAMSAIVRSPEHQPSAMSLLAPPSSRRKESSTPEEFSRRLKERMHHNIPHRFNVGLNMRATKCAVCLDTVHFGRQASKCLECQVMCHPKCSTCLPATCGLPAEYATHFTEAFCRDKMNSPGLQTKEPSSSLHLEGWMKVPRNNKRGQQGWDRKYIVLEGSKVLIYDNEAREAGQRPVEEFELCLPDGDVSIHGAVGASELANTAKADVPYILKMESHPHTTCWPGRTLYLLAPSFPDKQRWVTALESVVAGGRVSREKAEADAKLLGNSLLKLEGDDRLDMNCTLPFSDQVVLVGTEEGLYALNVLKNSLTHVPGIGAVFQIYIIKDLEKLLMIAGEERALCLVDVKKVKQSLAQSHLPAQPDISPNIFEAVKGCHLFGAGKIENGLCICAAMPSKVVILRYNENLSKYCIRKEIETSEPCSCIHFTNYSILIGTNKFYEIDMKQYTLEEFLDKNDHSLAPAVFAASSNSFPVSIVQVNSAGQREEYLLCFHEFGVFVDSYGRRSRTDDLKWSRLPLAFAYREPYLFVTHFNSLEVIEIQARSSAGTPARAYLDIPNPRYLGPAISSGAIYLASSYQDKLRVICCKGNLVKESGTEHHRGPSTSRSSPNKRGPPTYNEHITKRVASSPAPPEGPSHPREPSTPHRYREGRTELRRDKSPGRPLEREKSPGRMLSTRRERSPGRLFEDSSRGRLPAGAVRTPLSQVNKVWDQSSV
T16 sequence (Q9HAZ1 whole entry): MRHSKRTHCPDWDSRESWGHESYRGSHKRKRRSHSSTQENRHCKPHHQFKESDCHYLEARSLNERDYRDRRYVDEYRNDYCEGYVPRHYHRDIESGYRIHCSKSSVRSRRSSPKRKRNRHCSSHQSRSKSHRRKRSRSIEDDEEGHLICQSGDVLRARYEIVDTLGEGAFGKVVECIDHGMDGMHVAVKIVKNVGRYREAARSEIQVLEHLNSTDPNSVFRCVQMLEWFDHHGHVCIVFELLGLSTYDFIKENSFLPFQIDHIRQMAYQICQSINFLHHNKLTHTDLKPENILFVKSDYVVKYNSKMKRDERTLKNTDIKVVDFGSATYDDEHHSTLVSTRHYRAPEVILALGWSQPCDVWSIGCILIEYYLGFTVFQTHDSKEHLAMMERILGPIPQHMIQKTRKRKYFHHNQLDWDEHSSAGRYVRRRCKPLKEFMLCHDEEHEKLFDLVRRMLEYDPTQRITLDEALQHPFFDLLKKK

`N#Cc1ccc2ncnc(NCc3ccc4ccccc4c3)c2c1` [compound 14]: the “POC ligand binding, PIK3CA (I800L)” value in test [1] came out at 62 POC. In [2], the “POC ligand binding, MAPKAPK5” value is recorded as 100 POC. Also, the “POC ligand binding, BTK” value in [3] was determined as 100 POC. Also, the “POC ligand binding, CSNK1G3” value in test [4] was found to be 52 POC. The “POC ligand binding, HIPK3” value in test [5] amounted to 35 POC. Further, the “POC ligand binding, IRAK1” value in test [6] was 35 POC. Besides, the “POC ligand binding, HIPK2” value in test [7] is 34 POC. In addition, the “POC ligand binding, CSNK1G2” value in [8] is on record as 43 POC. The “POC ligand binding, SLK” value in test [9] was found to be 90 POC. Moreover, in [10], the “POC ligand binding, PIP5K2C” value is 16 POC. The “POC ligand binding, CDK8” value in [11] (10 μM compound, 10 µM) came out at 0.4 POC. Also, the pKd in [11] (read-out: CDK8 inhibition (Kd)) is 5.60. The “POC ligand binding, CIT” value in test [12] was 9.8 POC. Further, in test [13], the “POC ligand binding, EGFR (G719C)” value was determined as 92 POC. The “POC ligand binding, CLK1” value in [14] came to 18 POC. Besides, the “POC ligand binding, MEK5” value in test [15] is 13 POC. In test [16], the “POC ligand binding, CLK4” value is 16 POC.

Source of the values: patent publication US8598344B2, “CDKI pathway inhibitors and uses thereof” (Senex Biotechnology, priority 2009, dated 2013).
